# Test results: patent US7803768B2, “Method for treatment of hyperglycemia in a subject in need thereof” (Kyoto University, priority 2005, dated 2010)
# Where no end group is shown, it is not given here. [ ]: non-standard residue; d: D form. The star is where a group is joined. Octanoyl = CCCCCCCC(=O)*
# Assays:
# neonatal rat STZ model = test: neonatal rat STZ model, human ghrelin or GHRP-2 (Examples 3 and 4); type: in vivo, Sprague Dawley rats; conditions: 9th week after birth; for Body weights: FIG. 7A / FIG. 8A; for Pancreas weights: FIG. 7B / FIG. 8B; for Insulin Content (Gut Side): calculated from gut-side pancreas sample; for Insulin Content (Gut Side) / Insulin Content (Spleen Side): mean ± SE; for Insulin Content (Spleen Side): calculated from spleen-side pancreas sample
# Source text: Sprague Dawley female pregnant rats, purchased from Charles River, were allowed free access to tap water and a standard pellet rat diet (CRF-1, Oriental Yeast Co., Ltd.), and natural deliveries were allowed. Three experimental groups as follows were set: control group wherein rats received single peritoneal injection of citrate buffer immediately after birth; STZ-vehicle group wherein rats received single peritoneal injection of STZ, and then vehicle (5% mannitol solution) was subcutaneously administered twice a day from the 2nd day after birth for 7 days; and STZ-human ghrelin group wherein rats received single peritoneal injection of STZ, and then human ghrelin (sequence No. 1, 100 μg/kg body weight) was subcutaneously injected twice a day from a 2nd day after birth for 7 days.
# STZ was prepared and administered as in the example 1. Each male neonatal rat was checked for urinary sugar on the 2nd day with Pretest 3aII (Wako Pure Chemical Industries, Ltd.). Only rats that were glycosuric (3+ value with Pretest 3aII) at day 2 after birth were included in the following studies. The rats were weaned in the evening on the 20th day after birth. Blood samples were collected from tail vein while awake at 8th week (57th day) after birth to measure plasma glucose and insulin concentrations. In addition, after measuring body weight at 9th week (62nd or 63rd day) after birth, blood samples were collected from abdominal aorta under anesthesia with intraperitoneal injection of pentobarbital sodium (50 mg/kg). Whole pancreases were removed and weighed. Thereafter, the pancreases were divided into two pieces and kept for insulin content measurement. Blood samples were centrifuged immediately at 4° C. to prepare plasma samples, and kept at −80° C. until measurement of glucose and insulin concentrations. Glucose concentration was measured using a Glucose CII-test Wako (Wako Pure Chemical Industries, Ltd.), while insulin concentration was measured using a highly sensitive insulin measurement kit (Morinaga Institute of Biological Science, Inc.).
# Experimental materials, experimental methods and evaluation methods were similar to those in the example 2. As a test substance, 100 μg/kg of GHRP-2 was subcutaneously administered twice a day from a 2nd day after birth for 7 days (an STZ-GHRP-2 group).
# n0-STZ model = test: n0-STZ model: neonatal streptozotocin-treated rats given rat ghrelin (Example 1); type: in vivo, Sprague Dawley rats; conditions: for Plasma Insulin: 100 μg/kg s.c. twice a day, 2nd to 8th day after birth, mean ± SE
# Source text: Female or male Sprague Dawley rats, purchased from Charles River were, were allowed free access to tap water and a standard pellet rat diet (352 kcal/100 g, CE-2, CLEA). Females were caged with a male for one night, and pregnancy was detected by abdominal palpation 14 days later. Natural birth occurred 22 days after mating. We examined three experimental groups as follows: a control group (Sprague Dawley rats) wherein newborn rats received a single intraperitoneal injection of citrate buffer; an n0-STZ group wherein rats received a single intraperitoneal injection of streptozotocin (STZ); and an n0-STZ/ghrelin group wherein rats received a single intraperitoneal injection of streptozotocin, and then received rat-derived ghrelin (hereafter reffered to as rat ghrelin, sequence No. 3, 100 μg/kg body weight) by subcutaneous injection twice a day on the 2nd to 8th day after birth for 7 days.
# Streptozotocin (Sigma, 100 mg/kg body weight) was dissolved in citrate buffer (0.05 mmol/L, pH4.5) and immediately injected intraperitoneally once into a rat immediately after birth. Pups were left with their mothers. Each neonatal rat was checked for urinary sugar on the 2nd day with Multistix SG (Bayer Medical). Only rats that were glycosuric (3+ value with Multistix SG test) at day 2 after birth were included in the n0-STZ model group. Animals were killed at 21 or 70 days by bleeding under anesthesia with intraperitoneal injection of pentobarbital sodium (50 mg/kg).
# After excision, pancreases were removed and weighed. To measure insulin content, pancreases (35-50 mg) were homogenized and centrifuged in 5 ml of acid-ethanol (0.15 M HCl 75% (v/v)-ethanol solution), and the supernatants were kept at −80° C. For immunohistochemistry, additional pancreases were fixed in 4% paraformaldehyde fixative for 24 hours, and embedded in paraffin.
# Insulin and pdx-1 were detected immunohistochemically on 3 μm-thick tissue sections using an indirect peroxidase-labeling technique. Each section was incubated with a primary antibody (guinea pig anti-porcine insulin, DACO) or (rabbit anti-mouse/rat IDX-1; CHEMICON) for 1 hour. Staining was performed by incubation with 3,3′-diaminobenzidine tetrahydrochloride (DAB) kit (DakoCytomation). Quantitative evaluations of total β cells area were performed by a computer-assisted image analysis procedure using an Olympus BX 51 microscope connected to a digital camera DP 12 and Mac SCOPE Ver2.6 software (Mitani, Fukui, Japan). β cells area and total pancreatic section area were evaluated for each stained section. A relative volume of β cells was determined by a sterological morphological method, with calculation of the ratio between the areas occupied by immunoreactive cells and those occupied by total pancreatic cells.
# Total RNA was extracted from rat pancreases as previously reported (Biochem. Biophys. Res. Commun., 214, pp. 239-246, 1995). To synthesis the first-strand cDNA, the extracted products were used as templates in reactions containing RT (Invitrogen) and the target 3′ primer. An RT-PCR analysis was performed according to a method previously reported (Biochem. Biophys. Res. Commun., 214, pp. 239-246, 1995). The first strand cDNA was used in subsequent PCR analyses. In the PCR analyses, oligonucleotide primers as follows were used for each target cDNA. The identity of the PCR product was confirmed by agarose gel electrophoresis.
# Realtime PCR was performed as follows. The cDNA (1 μl) was mixed with 2×PCR Master Mix (Applied Biosystems) (25 μl), sterilized distilled water (23 μl), and sense and antisense primers ([…], 0.5 μl) of insulin and Pdx-1. Forty cycles of PCR amplification were carried out using the thermal cycler system (ABI PRISM 7700, Applied Biosystems, Japan), for 15 seconds at 95° C. followed by 60 seconds at 60° C. The concentration of each mRNA product was quantified using calibration curves expressing the fluorescence intensity against the amount of standardized PCR product. […]
# β cells = test: β cell replication, phospho-histone H3 / insulin double staining of pancreatic sections (Example 2); type: in vivo, rat; conditions: for Double positive cells for phospho-histone H3 and insulin: 10-week-old rats, FIG. 6, no significant difference among four groups; for Increase of double positive cells for phospho-histone H3 and insulin: 21-day-old rats, FIG. 5B
# Procedure: Pancreatic sections that had not been used for morphological studies were used to examine β cell replication. The sections were subjected to double staining for phospho-histone H3 (Ser10) and insulin. The sections were incubated overnight with 50-fold dilution of anti-phospho-histone H3 (Ser10) antibody (Cell Signaling Technology) at 4° C. Thereafter, the sections were incubated with guinea pig anti-insulin antibody at a room temperature for 1 hour. After washing with PBS for 6 times, the sections were incubated at a room temperature for 30 minutes in a blocking solution with a secondary antibody conjugated with fluorescence (Alexa Fluor 488 and 546, Molecular Probe). After washing with PBS, sections were mounted with mounting medium containing DAPI (Vector Laboratories) and examined with confocal laser scanning microscopy (Leica Microsystems). At least 1,000β cells were counted per section.
# [1] = test system: high fatty acid diet-fed mice; test: high fatty acid diet-fed mice with linoleic acid loading (Example 5); type: in vivo, Crj:CD1(ICR) mice
# Source text: Male Crj:CD1(ICR) mice (Charles River Japan) were allowed free access to tap water and a standard pellet mouse diet (CRF-1, Oriental Yeast Co., Ltd.) (with lighting hours from 21 to 9 o'clock). Normal control mice were kept in this condition (normal diet, an ND group). A high fatty acid diet group (High Fat Diet, an HFD group) was allowed to freely take a mixture of 5 g CRF-1 (powder) with 1 g linoleic acid as a high fatty acid diet from the 4th week after birth. As test substances, a vehicle (5% mannitol solution) (an HFD-vehicle group) or 300 μg/kg of human ghrelin (an HFD-ghrelin group) was administered twice a day (once a day in a holiday) for about 7 weeks from the day of the start of high fatty acid diet load. Changes in the body weights and ad lib blood sugar levels after the start of test substance administration were monitored. In addition, mice were fasted overnight on the 50th day from the start of test substance administration, and then linoleic acid (1 mL/kg, intraperitoneal administration) was acutely loaded on a next day to measure plasma glucose and plasma insulin concentrations 1 hour later. The blood sugar value was measured using Antisense II (Horiba, Ltd.), while plasma glucose concentration and insulin concentration were measured using a Glucose CII-test Wako (Wako Pure Chemical Industries, Ltd.) and a Lebis insulin kit (TMB for a mouse) (Shibayagi Co. Ltd.), respectively.
substance,measurement,setting,value
"A[dW]AW[dF]K-NH2 [GHRP-2, reference compound]",Insulin contents in pancreases relative to the STZ-vehicle group,neonatal rat STZ model,higher than those of the STZ-vehicle group
same,Body weights,neonatal rat STZ model,not significantly different from those of the control group
same,Pancreas weights,neonatal rat STZ model,greater than those of the STZ-vehicle group
same,Insulin Content (Gut Side),neonatal rat STZ model,81.7 ± 4.6 μg/pancreas
same,Insulin Content (Spleen Side),neonatal rat STZ model,146.8 ± 10.9 μg/pancreas
GSS(n-octanoyl)FLSPEHQKAQQRKESKKPPAKLQPR [rat ghrelin],Plasma Insulin,n0-STZ model; 10-week-old rats,0.93 ± 0.49 ng/mL
same,Plasma Insulin,n0-STZ model; 21-day-old rats,0.35 ± 0.17 ng/mL
same,Insulin mRNA expression levels within the pancreases,"n0-STZ model; 21st day after birth, FIG. 1A",returned to levels similar to those of the control group
same,pdx-1 gene expression levels in pancreas,"n0-STZ model; 21st day after birth, FIG. 2A",recovered to the levels similar to those in the control group
same,"Islet of Langerhans size, insulin immunostaining of pancreases","n0-STZ model; 21st day after birth, FIGS. 1B-E",larger than that of the n0-STZ group but smaller than that of the control group
same,Pdx-1 gene expression in pancreas,"n0-STZ model; 70th day after birth (adult rats), FIG. 4A",returned to the level close to that of the control group
same,Insulin mRNA expression in pancreas,"n0-STZ model; 70th day after birth (adult stage), FIG. 3B",a level similar to that of the control group
same,"Islet of Langerhans size, insulin immunohistochemical staining","n0-STZ model; 70th day after birth, FIGS. 3C-F",larger than that of the n0-STZ group but smaller than that of the control group
same,Double positive cells for phospho-histone H3 and insulin,β cells; STZ model,tendency for double positive cells for phospho-histone H3 and insulin to increase
same,Double positive cells for phospho-histone H3 and insulin,β cells; control group (no STZ),tended to decrease
same,Increase of double positive cells for phospho-histone H3 and insulin,β cells; ghrelin group as compared to control rats,approximately 1.7 fold
same,Increase of double positive cells for phospho-histone H3 and insulin,β cells; n0-STZ/ghrelin group as compared to n0-STZ rats,~15 fold
GSS(n-octanoyl)FLSPEHQRVQQRKESKKPPAKLQPR (GSS(Octanoyl)FLSPEHQRVQQRKESKKPPAKLQPR; listed as Homo Sapiens) [human ghrelin],Insulin contents in pancreases relative to the STZ-vehicle group,neonatal rat STZ model,about twice as high as those of the STZ-vehicle group
same,Body weights,neonatal rat STZ model,comparable to those of the control group
same,Pancreas weights,neonatal rat STZ model,significantly greater than those of the STZ-vehicle group
same,Insulin Content (Gut Side),neonatal rat STZ model,63.0 ± 6.7 μg/pancreas
same,Insulin Content (Spleen Side),neonatal rat STZ model,120.9 ± 14.1 μg/pancreas
same,ad lib blood sugar levels,"[1]; 43rd day of high fatty acid diet and 300 μg/kg s.c. administration, FIG. 9B",tended to decrease as compared to the HFD-vehicle group
same,Plasma glucose concentrations after linoleic acid loading,"[1]; 1 hour after 1 mL/kg linoleic acid i.p., FIG. 10B",tended to be low as compared to the HFD-vehicle group
same,Plasma glucose concentrations before linoleic acid loading,"[1]; after 50 days of high fatty acid diet and 300 μg/kg administration, fasted overnight, mean of 8 mice ± standard error",141 ± 5 mg/dL
same,Plasma insulin concentrations after linoleic acid loading,"[1]; after 50 days, fasted overnight, 1 hour after 1 mL/kg linoleic acid i.p., FIG. 10A",higher than those of the HFD-vehicle group
